Measured values as given in patent publication US8252832B2, “Kinesin inhibitors as cancer therapeutics” (Novartis AG, priority 2007, dated 2012).
Read-outs that look alike come from different tables or passages of the source.

Experiments:
Test in all cases: CellTiter-Glo, hematologic malignancy panel
Type in all cases: cell-based
AML-193 = test system: AML-193
Description: (§1) Identification of tumor types that are the most sensitive to the KSP inhibitors of the present invention can be accomplished using an unbiased approach that uses several cell-based assays. The assays chosen were as follows: • CellTiter-Glo®. This is an assay designed to measure ATP concentration in a cell culture, and can be correlated to cell number. Briefly CellTiter-Glo® (Promega Corporation) is a homogeneous method using the single CellTiter-Glo® reagent to detect ATP wherein ATP in the assay drives the activity of a thermostable luciferase to create a luminescent signal which can then be measured and correlated with the number of viable cells. Briefly, for adherent cells, 1,000 to 5,000 cells/well were plated in 96-well plates (100 μl/well) and let to adhere for 24 hours before being treated with drug. For non-adherent cells, 1,000 to 10,000 cells/well were plated in 96-well plates (100 μl/well) and immediately treated with drug. Drug dilutions were prepared in DMSO at 1000 times the final concentration. These dilutions were then diluted 1/100 in growth media before being added to the cells (11 μl/well) to achieve the desired final concentration. After 48 h in a 37° C. tissue culture incubator, the plates were processed for the CellTiter-Glo®assay according to the manufacturer's instructions. Protocol for a 72 hour cell proliferation assay: The 72 hour assay was performed the same way as the 48 hour assay except for the following modifications: For adherent cells, 500 to 5,000 cells/well were plated in 96-well plates (90 μl/well cell growth media) and left to adhere for 24 hours before being treated with drug. For non-adherent cells, 1,000 to 10,000 cells/well were plated in 96-well plates (90 μl/well cell growth media) and immediately treated with drug. Data values presented represent the concentration of test compound required for a 50% reduction in growth. • LDH release. The Cytotoxicity Detection KitPLUS (LDH) assay (Roche Diagnostics, Manheim, Germany) measures the amount of LDH released in the media by dying cells; LDH catalyzes the conversion of lactate into pyruvate. The enzymatic reaction is coupled to a chemical reaction that uses a tetrazolium salt to form a formazan that is red and can be detected by its absorbance at 490 nm. This assay measures the amount of cell death after drug treatment. Cells were plated at 10,000 cells/well in 96-well plates (100 μl/well). Adherent cells were let to adhere for 24 hours before being treated with drug, whereas non-adherent cells were immediately treated with drug. Drug dilutions were prepared in DMSO at 1000 times the final concentration. These dilutions were then diluted 1/100 in growth media before being added to the cells (11 μl/well) to achieve the desired final concentration. After 48 h in a 37° C. tissue culture incubator, the plates were processed for the Cytotoxicity Detection KitPLUS (LDH) assay according to the manufacturer's instructions. The media only values were subtracted from all the data points before analysis. Data values presented correspond to the compound concentration wherein LDH output is at half maximal level. • Caspase-Glo® 3/7. The Caspase-Glo® 3/7 Assay (Promega Corporation) is a homogeneous luminescent assay that measures caspase-3/7 activities. The assay provides a proluminescent caspase-3/7 DEVD-aminoluciferin substrate and a thermostable luciferase in a reagent optimized for caspase-3/7 activity, luciferase activity and cell lysis. Adding the single Caspase-Glo® 3/7 Reagent results in cell lysis, followed by caspase cleavage of the substrate. This liberates free aminoluciferin, which is consumed by the luciferase, generating a luminescent signal. The signal is proportional to caspase-3/7 activity. Data values presented correspond to the compound concentration wherein caspase 3/7 activity is at half maximal level. […]

CCRF-CEM = settings: ALL; for GI50: Homo sapiens
Description: as §1

HL60 = settings: for GI50: Homo sapiens, HL-60, AML
Description: as §1

RS4; 11 = settings: ALL; for GI50: Homo sapiens
Description: as §1

KMS26 = settings: for GI50: KMS-26, MM
Description: as §1

KMS18-Luc = settings: MM
Description: as §1

SUDHL-4 = settings: for GI50: Homo sapiens, SU-DHL-4, NHL
Description: as §1

HEL92 = settings: AML
Description: as §1

L363 = settings: for GI50: Homo sapiens, L-363, MM
Description: as §1

U937 = settings: for GI50: Homo sapiens, U-937, NHL
Description: as §1

MOLT-4 = settings: ALL; for GI50: Homo sapiens
Description: as §1

[1] = GI50 in nM, read-out: Log(GI50) (converted)

## CC(C)(C)[C@H](c1nc(-c2cc(F)ccc2F)cn1Cc1ccccc1)N(CC[C@H](N)CF)C(=O)CO [Compound IIa]
AML-193
  Differential vs mean Log(GI50): 0.489
AML-193; [1]
  GI50: 0.11 nM
AML-193; read-out: GI50
  GI50: 0.11 nM
CCRF-CEM
  Differential vs mean Log(GI50): 0.315
CCRF-CEM; [1]
  GI50: 0.164 nM
CCRF-CEM; read-out: GI50
  GI50: 0.16 nM
HL60; AML
  Differential vs mean Log(GI50): 0.313
HL60; [1]
  GI50: 0.165 nM
HL60; read-out: GI50
  GI50: 0.17 nM
RS4; 11
  Differential vs mean Log(GI50): 0.530
RS4; 11; [1]
  GI50: 0.1 nM
RS4; 11; read-out: GI50
  GI50: 0.1 nM
KMS26; [1]
  GI50: 0.24 nM
KMS26; read-out: GI50
  GI50: 0.24 nM
KMS26; MM
  Differential vs mean Log(GI50): 0.150
KMS18-Luc
  Differential vs mean Log(GI50): −0.184
KMS18-Luc; [1]
  GI50: 0.518 nM
KMS18-Luc; read-out: GI50
  GI50: 0.52 nM
SUDHL-4; [1]
  GI50: 0.447 nM
SUDHL-4; read-out: GI50
  GI50: 0.45 nM
SUDHL-4; NHL
  Differential vs mean Log(GI50): −0.120
HEL92
  Differential vs mean Log(GI50): −0.160
HEL92; [1]
  GI50: 0.49 nM
HEL92; read-out: GI50
  GI50: 0.49 nM
L363; [1]
  GI50: 0.13 nM
L363; read-out: GI50
  GI50: 0.13 nM
L363; MM
  Differential vs mean Log(GI50): 0.416
U937; [1]
  GI50: 0.2 nM
U937; read-out: GI50
  GI50: 0.2 nM
U937; NHL
  Differential vs mean Log(GI50): 0.229
MOLT-4
  Differential vs mean Log(GI50): 0.010
MOLT-4; [1]
  GI50: 0.331 nM
MOLT-4; read-out: GI50
  GI50: 0.33 nM
